Test results as given in patent US8569344B2, “N-piperidinyl acetamide derivatives as calcium channel blockers” (Zalicus Pharmaceuticals Ltd., priority 2008, dated 2013).

Experiments:
[1] = molecular target: T1, human α1G T-type channels (Homo sapiens, UniProt O43497); experiment: T-type calcium channel block, whole cell patch clamp in HEK cells (α1G); type: cell-based; details: HEK cells, patch clamp, mainly non-inactivated protocol; values above 10 μM shown as 10 μM, below 0.30 μM shown as 0.30 μM; read-out: T-type Calcium Channel Block α1G IC50
T1 construct: expressed in transfected cells; host or cells: HEK 293

[2] = molecular target: T2, human α1H T-type channels (Homo sapiens, UniProt O95180); experiment: T-type calcium channel block, whole cell patch clamp in HEK cells (α1H); type: cell-based; details: HEK cells, patch clamp, mainly non-inactivated protocol; values above 10 μM shown as 10 μM; read-out: T-type Calcium Channel Block α1H IC50
T2 construct: expressed in transfected cells; host or cells: HEK 293
T2 sequence (O95180 whole entry): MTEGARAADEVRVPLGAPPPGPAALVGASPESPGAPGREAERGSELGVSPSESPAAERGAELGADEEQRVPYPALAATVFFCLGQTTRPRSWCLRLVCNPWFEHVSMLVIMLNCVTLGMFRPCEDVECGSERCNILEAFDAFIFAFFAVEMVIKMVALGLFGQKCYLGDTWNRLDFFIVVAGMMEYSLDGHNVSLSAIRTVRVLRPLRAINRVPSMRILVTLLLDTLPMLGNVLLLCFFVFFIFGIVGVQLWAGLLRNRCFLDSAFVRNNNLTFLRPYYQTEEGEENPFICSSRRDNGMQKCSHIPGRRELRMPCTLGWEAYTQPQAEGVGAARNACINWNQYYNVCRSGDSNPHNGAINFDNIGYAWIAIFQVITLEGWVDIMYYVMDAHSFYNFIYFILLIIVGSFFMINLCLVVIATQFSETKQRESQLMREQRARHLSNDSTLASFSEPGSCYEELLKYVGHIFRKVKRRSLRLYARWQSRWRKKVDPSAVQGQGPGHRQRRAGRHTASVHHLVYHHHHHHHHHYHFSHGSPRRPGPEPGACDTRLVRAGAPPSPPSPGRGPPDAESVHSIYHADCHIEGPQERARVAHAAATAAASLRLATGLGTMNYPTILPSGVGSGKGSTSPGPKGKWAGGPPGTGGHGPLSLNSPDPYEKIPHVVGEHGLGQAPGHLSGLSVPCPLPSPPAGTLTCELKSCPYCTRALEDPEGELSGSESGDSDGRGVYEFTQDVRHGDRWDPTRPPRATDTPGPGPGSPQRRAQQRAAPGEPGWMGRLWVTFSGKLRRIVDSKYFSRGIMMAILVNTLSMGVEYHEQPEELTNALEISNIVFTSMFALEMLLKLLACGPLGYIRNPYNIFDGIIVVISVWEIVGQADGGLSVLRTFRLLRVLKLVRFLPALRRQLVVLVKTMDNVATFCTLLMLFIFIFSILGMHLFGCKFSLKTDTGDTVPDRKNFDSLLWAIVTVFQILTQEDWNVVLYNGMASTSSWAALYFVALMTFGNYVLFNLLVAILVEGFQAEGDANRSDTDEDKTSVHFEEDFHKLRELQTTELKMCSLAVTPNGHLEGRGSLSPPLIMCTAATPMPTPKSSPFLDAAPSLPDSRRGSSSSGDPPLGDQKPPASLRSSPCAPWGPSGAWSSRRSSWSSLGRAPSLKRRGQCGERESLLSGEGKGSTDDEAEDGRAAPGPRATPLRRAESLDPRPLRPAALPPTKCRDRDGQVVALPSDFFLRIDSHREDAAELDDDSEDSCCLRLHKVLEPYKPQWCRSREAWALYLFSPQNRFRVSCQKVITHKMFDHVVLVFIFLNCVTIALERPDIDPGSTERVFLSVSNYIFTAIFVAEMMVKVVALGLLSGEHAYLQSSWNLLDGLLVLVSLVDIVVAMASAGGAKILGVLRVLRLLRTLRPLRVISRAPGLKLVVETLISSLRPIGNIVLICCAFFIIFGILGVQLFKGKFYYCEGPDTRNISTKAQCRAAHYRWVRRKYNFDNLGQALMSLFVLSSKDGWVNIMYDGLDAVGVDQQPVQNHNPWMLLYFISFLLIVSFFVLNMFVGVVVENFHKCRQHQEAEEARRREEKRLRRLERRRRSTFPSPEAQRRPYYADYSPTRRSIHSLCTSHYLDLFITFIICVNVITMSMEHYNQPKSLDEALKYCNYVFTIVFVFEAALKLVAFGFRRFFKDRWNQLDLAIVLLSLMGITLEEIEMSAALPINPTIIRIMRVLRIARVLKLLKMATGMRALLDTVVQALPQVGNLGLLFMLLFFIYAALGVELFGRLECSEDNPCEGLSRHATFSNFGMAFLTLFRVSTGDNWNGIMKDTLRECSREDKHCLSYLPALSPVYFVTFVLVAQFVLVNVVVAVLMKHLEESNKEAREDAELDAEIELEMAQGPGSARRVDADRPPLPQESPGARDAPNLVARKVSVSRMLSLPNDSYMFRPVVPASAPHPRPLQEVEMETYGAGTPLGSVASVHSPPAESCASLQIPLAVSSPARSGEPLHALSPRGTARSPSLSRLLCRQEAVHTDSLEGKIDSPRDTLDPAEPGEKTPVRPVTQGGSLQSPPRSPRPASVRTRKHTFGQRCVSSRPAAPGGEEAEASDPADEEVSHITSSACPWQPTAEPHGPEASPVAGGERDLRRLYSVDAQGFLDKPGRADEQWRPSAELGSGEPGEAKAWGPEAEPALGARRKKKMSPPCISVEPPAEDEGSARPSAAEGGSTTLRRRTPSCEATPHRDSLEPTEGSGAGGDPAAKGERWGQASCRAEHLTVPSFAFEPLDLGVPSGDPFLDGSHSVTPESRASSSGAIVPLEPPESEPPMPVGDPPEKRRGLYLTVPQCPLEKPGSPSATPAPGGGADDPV

T1 sequence (O43497 whole entry): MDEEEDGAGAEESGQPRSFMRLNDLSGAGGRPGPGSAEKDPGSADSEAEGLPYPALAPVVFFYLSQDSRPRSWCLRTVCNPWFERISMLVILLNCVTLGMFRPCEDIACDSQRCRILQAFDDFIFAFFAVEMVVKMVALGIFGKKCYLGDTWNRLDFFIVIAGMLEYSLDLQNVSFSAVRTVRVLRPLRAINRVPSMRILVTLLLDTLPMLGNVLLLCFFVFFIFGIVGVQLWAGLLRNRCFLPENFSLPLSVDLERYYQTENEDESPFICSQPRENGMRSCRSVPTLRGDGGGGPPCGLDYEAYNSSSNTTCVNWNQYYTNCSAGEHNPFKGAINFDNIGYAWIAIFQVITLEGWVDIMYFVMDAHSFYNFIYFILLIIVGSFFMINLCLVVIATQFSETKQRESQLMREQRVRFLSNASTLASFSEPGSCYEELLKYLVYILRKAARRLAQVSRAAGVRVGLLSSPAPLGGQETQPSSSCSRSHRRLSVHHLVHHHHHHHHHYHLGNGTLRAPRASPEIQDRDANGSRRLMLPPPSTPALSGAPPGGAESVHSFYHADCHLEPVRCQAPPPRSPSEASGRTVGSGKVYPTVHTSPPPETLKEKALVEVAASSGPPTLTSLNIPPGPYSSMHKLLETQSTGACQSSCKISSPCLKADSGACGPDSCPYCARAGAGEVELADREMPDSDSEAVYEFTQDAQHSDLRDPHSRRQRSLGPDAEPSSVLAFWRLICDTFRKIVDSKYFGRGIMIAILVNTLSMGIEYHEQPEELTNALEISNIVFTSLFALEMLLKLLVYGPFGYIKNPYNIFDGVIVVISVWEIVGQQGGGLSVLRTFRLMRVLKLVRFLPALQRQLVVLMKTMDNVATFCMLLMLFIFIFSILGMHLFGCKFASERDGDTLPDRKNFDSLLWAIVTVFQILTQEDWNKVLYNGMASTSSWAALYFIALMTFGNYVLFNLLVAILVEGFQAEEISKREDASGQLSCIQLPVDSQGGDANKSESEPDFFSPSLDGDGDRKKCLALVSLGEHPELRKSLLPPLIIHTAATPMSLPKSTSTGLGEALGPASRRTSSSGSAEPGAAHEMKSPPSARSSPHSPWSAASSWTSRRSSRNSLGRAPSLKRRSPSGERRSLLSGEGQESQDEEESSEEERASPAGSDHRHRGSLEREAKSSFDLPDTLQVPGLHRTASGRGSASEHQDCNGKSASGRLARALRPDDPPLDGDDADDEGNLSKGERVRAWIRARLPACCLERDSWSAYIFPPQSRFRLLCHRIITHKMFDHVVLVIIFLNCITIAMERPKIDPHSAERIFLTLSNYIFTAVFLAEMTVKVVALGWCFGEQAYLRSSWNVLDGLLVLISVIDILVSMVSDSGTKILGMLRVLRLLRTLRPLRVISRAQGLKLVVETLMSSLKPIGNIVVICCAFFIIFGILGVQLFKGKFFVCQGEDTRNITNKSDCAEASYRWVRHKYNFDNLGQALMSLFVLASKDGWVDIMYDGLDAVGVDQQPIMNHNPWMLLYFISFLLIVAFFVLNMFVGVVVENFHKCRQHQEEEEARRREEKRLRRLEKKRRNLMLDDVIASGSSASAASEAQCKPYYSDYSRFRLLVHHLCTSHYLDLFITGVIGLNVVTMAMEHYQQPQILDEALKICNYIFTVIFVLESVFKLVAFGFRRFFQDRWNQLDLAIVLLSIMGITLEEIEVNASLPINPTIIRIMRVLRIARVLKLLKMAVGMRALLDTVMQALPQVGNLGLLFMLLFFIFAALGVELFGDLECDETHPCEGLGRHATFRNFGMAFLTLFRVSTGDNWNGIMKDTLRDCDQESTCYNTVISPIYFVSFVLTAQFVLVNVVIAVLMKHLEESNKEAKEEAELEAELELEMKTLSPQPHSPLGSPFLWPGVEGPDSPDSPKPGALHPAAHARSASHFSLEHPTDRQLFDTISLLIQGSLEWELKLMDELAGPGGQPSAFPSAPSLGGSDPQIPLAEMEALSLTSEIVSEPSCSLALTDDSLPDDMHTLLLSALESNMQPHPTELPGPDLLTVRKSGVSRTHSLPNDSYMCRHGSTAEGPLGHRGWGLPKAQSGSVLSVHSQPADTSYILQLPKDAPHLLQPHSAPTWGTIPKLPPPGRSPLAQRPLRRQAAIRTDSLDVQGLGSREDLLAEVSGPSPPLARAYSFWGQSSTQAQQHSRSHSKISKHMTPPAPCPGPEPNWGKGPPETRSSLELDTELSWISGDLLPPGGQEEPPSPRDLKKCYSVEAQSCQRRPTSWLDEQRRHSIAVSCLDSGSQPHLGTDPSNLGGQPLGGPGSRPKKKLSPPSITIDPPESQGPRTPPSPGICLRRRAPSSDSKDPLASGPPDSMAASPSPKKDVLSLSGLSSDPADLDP

SMILES | IC50 [1] [nM] | IC50 [2] [nM]
O=C(NCC1CCN(CCNC(=O)C2(C(F)(F)F)CC2)CC1)c1cccc(Cl)c1 [Compound 502, 3-chloro-N-((1-(2-(1-(trifluoromethyl)cyclopropanecarbox-amido)ethyl)piperidin-4-yl)methyl) benzamide] | 590 | 230
COC(=O)NC1(CN2CCC(CNC(=O)c3cc(C(F)(F)F)cc(C(F)(F)F)c3)CC2)CCCC1 [Compound 16, methyl 1-((4-((3,5-bis(trifluoromethyl)benzamido)methyl)piperidin-1-yl)methyl)cyclopentyl-carbamate] | < 300 | 190
Cc1cc(C)cc(C(=O)NCC2CCN(CC(=O)NC(C)(C)C(F)(F)F)CC2)c1 [Compound 454, 3,5-dimethyl-N-((1-(2-oxo-2-(1,1,1-trifluoro-2-methylpropan-2-ylamino)ethyl)piperidin-4-yl)methyl)benzamide] | < 300 | 40
O=C(CCC(F)(F)F)NCCN1CCC(CNC(=O)c2cccc(Cl)c2)CC1 [Compound 315, 3-chloro-N-((1-(2-(4,4,4-trifluorobutanamido)ethyl)piperidin-4-yl)methyl)benzamide] | 9900 | 1470
CC(C)(C)S(=O)(=O)NCCN1CCC(CNC(=O)c2cc(F)cc(Cl)c2)CC1 [Compound 565, 3-chloro-N-((1-(2-(1,1-dimethylethylsulfonamido)ethyl)piperidin-4-yl)methyl)-5-fluoro-benzamide] | 310 | 220
CCOC1CCN(C(=O)CN2CCC(CNC(=O)c3cc(C(F)(F)F)cc(C(F)(F)F)c3)CC2)CC1 [Compound 305, N-((1-(2-(4-ethoxypiperidin-1-yl)-2-oxoethyl)piperidin-4-yl)methyl)-3,5-bis(trifluoromethyl)benzamide] | 7420 | 4450
CC(C)(C)NC(=O)NC1(CN2CCC(CNC(=O)c3cc(C(F)(F)F)cc(C(F)(F)F)c3)CC2)CCCC1 [Compound 12, N-((1-((1-(3-tert-butylureido)cyclopentyl)methyl)piperidin-4-yl)methyl)-3,5-bis(trifluoromethyl)benzamide] | 480 | 1660
CCCCCNCC(=O)N1CCC(CNC(=O)c2cc(F)cc(C(F)(F)F)c2)CC1 [Compound 267, 3-fluoro-N-((1-(2-(pentylamino)acetyl)piperidin-4-yl)methyl)-5-(trifluoromethyl)benzamide] | 390 | 870
O=C(NCC1CCN(CC(=O)N2CC[C@H](C(F)(F)F)C2)CC1)c1cc(C(F)(F)F)cc(C(F)(F)F)c1 [Compound 348, (S)-N-((1-(2-oxo-2-(3-(trifluoromethyl)pyrrolidin-1-yl)ethyl)piperidin-4-yl)methyl)-3,5-bis(trifluoromethyl)benzamide] | < 300 | 110
COc1cc(C(=O)NCC2CCN(CC(=O)NC(C)(C)C)CC2)cc(C(F)(F)F)c1 [Compound 379, N-((1-(2-(tert-buylamino)-2-oxoethyl)piperidin-4-yl)methyl)-3-methoxy-5-(trifluoromethyl)benzamide] | < 300 | 130
CC(C)(C)OC(=O)NCCN1CCC(CNC(=O)c2cc(Cl)cc(Cl)c2)CC1 [Compound 43, tert-butyl 2-(4-((3,5-dichlorobenzamido)methyl)piperidin-1-yl)ethylcarbamate] | < 300 | 150
O=C(NCC1CCN(CCNS(=O)(=O)C(F)(F)F)CC1)c1cc(C(F)(F)F)cc(C(F)(F)F)c1 [Compound 21, 3,5-bis(trifluoromethyl)-N-((1-(2-(trifluoromethylsulfonamido)ethyl)piperidin-4-yl)methyl)benzamide] | 3660 | 590
COc1cc(Cl)cc(C(=O)NCC2CCN(CCNS(=O)(=O)C(F)(F)F)CC2)c1 [Compound 326, 3-chloro-5-methoxy-N-((1-(2-(trifluoromethylsulfonamido)ethyl)piperidin-4-yl)methyl)benzamide] | > 10000 | 6990
O=C(NCC1CCN(C(=O)CNC2CCCC2)CC1)c1cc(C(F)(F)F)cc(C(F)(F)F)c1 [Compound 247, N-((1-(2-(cyclopentylamino)acetyl)piperidin-4-yl)methyl)-3,5-bis(trifluoromethyl)benzamide] | < 300 | 500
CC(C)(C)NC(=O)CN1CCC(CNC(=O)c2cc(Cl)cc(C(F)(F)F)c2)CC1 [Compound 380, N-((1-(2-(tert-butylamino)-2-oxoethyl)piperidin-4-yl)methyl)-3-chloro-5-(trifluoromethyl)benzamide] | < 300 | 110
O=C(NCC1CCN(CCNC(=O)C2(C(F)(F)F)CCC2)CC1)c1cccc(Cl)c1 [Compound 512, 3-chloro-N-((1-(2-(1-(trifluoromethyl)cyclobutanecarboxamido)ethyl)piperidin-4-yl)methyl)benzamide] | < 300 | 190
O=C(NCC1CCN(CC(=O)N2CCC[C@@H]2C(F)(F)F)CC1)c1cc(F)cc(Cl)c1 [Compound 504, (R)-3-chloro-5-fluoro-N-((1-(2-oxo-2-(2-(trifluoromethyl)pyrrolidin-1-yl)ethyl)piperidin-4-yl)methyl) benzamide] | 420 | 420

More lines, now with the values ahead:

IC50 [1] [nM] | IC50 [2] [nM] | SMILES
< 300 | 80 | CC(C)(C)NC(=O)CN1CCC(CNC(=O)c2cc(Cl)cc(Br)c2)CC1 [Compound 381, 3-bromo-N-((1-(2-(tert-butylamino)-2-oxoethyl)piperidin-4-yl)methyl)-5-chlorobenzamide]
< 300 | 130 | CC(C)(C(=O)NCCN1CCC(CNC(=O)c2cc(F)cc(C(F)(F)F)c2)CC1)C(F)(F)F [Compound 339, 3-fluoro-N-((1-(2-(3,3,3-trifluoro-2,2-dimethylpropanamido)ethyl)piperidin-4-yl)methyl)-5-(trifluoromethyl)benzamide]
570 | 810 | CC(C)(C)C(=O)NCCN1CCC(CNC(=O)c2cc(F)cc(C(F)(F)F)c2)CC1 [Compound 294, 3-fluoro-N-((1-(2-pivalamidoethyl)piperidin-4-yl)methyl)-5-(trifluoromethyl)benzamide]
1840 | 2140 | COCC(COC)NC(=O)CN1CCC(CNC(=O)c2cc(F)cc(C(F)(F)F)c2)CC1 [Compound 354, N-((1-(2-(1,3-dimethoxypropan-2-ylamino)-2-oxoethyl)piperidin-4-yl)methyl)-3-fluoro-5-(trifluoromethyl) benzamide]
1620 | > 10000 | Cc1ccc(-c2csc(NC(=O)CC3CCN(CC(O)C(C)(C)C)CC3)n2)cc1 (stereo not drawn) [Compound 172, 2-(1-(2-hydroxy-3,3-dimethylbutyl)piperidin-4-yl)-N-(4-p-tolylthiazol-2-yl)acetamide]
760 | 820 | COCC(C)(C)NC(=O)CN1CCC(CNC(=O)c2cccc(Cl)c2)CC1 [Compound 566, 3-chloro-N-((1-(2-(1-methoxy-2-methylpropan-2-ylamino)-2-oxoethyl)piperidin-4-yl)methyl) benzamide]
8880 | > 10000 | CCCNC(=O)CN1CCC(CNC(=O)c2cccc(Br)c2)CC1 [Compound 450, 3-bromo-N-((1-(2-oxo-2-(propylamino)ethyl)piperidin-4-yl)methyl)benzamide]
3970 | > 10000 | CC(C)(C)N/C(CN1CCC(CNC(=O)c2cc(F)cc(C(F)(F)F)c2)CC1)=N\C#N [Compound 510, (Z)-N-((1-(2-(tert-butylamino)-2-(cyanoimino)ethyl)piperidin-4-yl)methyl)-3-fluoro-5-(trifluoromethyl) benzamide]
2980 | 1480 | O=C(NCC1CCN(CC(=O)N2CCC[C@@H]2C(F)(F)F)CC1)c1cccc(Cl)c1 [Compound 507, (R)-3-chloro-N-((1-(2-oxo-2-(2-(trifluoromethyl)pyrrolidin-1-yl)ethyl)piperidin-4-yl)methyl) benzamide]
< 300 | 90 | CC(C)(C)NC(=O)CN1CCC(CNC(=O)c2cc(Br)cc(Br)c2)CC1 [Compound 384, 3,5-dibromo-N-((1-(2-(tert-buylamino)-2-oxoethyl)piperidin-4-yl)methyl)benzamide]
3580 | 1310 | COc1cc(F)cc(C(=O)NCC2CCN(CC(=O)NCC(C)(C)F)CC2)c1 [Compound 557, 3-fluoro-N-((1-(2-(2-fluoro-2-methylpropylamino)-2-oxoethyl)piperidin-4-yl)methyl)-5-methoxy-benzamide]
850 | 350 | CC(C)(C)C(=O)NCCN1CCC(CNC(=O)c2cc(F)cc(Cl)c2)CC1 [Compound 309, 3-chloro-5-fluoro-N-((1-(2-pivalamidoethyl)piperidin-4-yl)methyl)benzamide]
380 | 420 | O=C(CN1CCC(CNC(=O)c2cccc(Cl)c2)CC1)NC1CCCC1 [Compound 534, 3-chloro-N-((1-(2-(cyclopentylamino)-2-oxoethyl)piperidin-4-yl)methyl) benzamide]
< 300 | 130 | COc1cc(F)cc(C(=O)NCC2CCN(CC(=O)NC3CCCC3)CC2)c1 [Compound 532, N-((1-(2-(cyclopentylamino)-2-oxoethyl)piperidin-4-yl)methyl)-3-fluoro-5-methoxybenzamide]
> 10000 | 9220 | O=C(NCC1CCN(CC(=O)N2CCC[C@@H]2C(F)(F)F)CC1)c1cccc(F)c1 [Compound 508, (R)-3-fluoro-N-((1-(2-oxo-2-(2-(trifluoromethyl)pyrrolidin-1-yl)ethyl)piperidin-4-yl)methyl) benzamide]
1030 | 1550 | O=C(NCC1CCN(CCNS(=O)(=O)C(F)(F)F)CC1)c1ccc(C(F)(F)F)c(F)c1 [Compound 328, 3-fluoro-4-(trifluoromethyl)-N-((1-(2-(trifluoromethylsulfonamido)ethyl)piperidin-4-yl)methyl)benzamide]
